{"source": "patent US7902261B2", "about": "“Medicinal compositions for preventing or treating viral myocarditis” (Mitsubishi Tanabe Pharma Corporation, priority 1999, dated 2011)", "key": {"IFN-γ": {"test_system": "IFN-γ", "assay": "Intracardiac cytokine assay (ELISA), IFN-γ", "type": "in vivo, mouse", "settings": "heart ventricle at day 5; CsA 40 mg/kg/day, compound 1 10 mg/kg/day orally; mean ± SEM; control 151.20 ± 15.66", "description": "(§1) Four-week-old male DBA/2 mice were divided into 3 groups and EMC virus (10 pfu) was intraperitoneally inoculated. After inoculation, distilled water (solvent, n=8) as a control, CsA (40 mg/kg/day, n=5), and compound 1 (10 mg/kg/day, n=7) were orally administered forcibly for 5 consecutive days using a probe. Five days later, the heart was aseptically harvested from the mice, and after weighing the ventricle, homogenized in phosphate-buffered saline (PBS, 1 ml). The homogenate was centrifuged at 4° C., 1,500 g for 15 min and the supernatant (0.1 ml) was inoculated to human amnion FL cell monolayer and cultured at 37° C. for 60 min in 5% CO2. The cells were overlaid with a medium (3 ml) containing 4% fetal calf serum and 1% methylcellulose. After culture under 5% CO2-containing humidified atmosphere at 37° C. for 20 hr, the cells were fixed with acetic acid-methanol (1:2) and stained with 1% crystal violet. The plaques were counted under an inverted microscope (Circulation. 89:846-851, 1994). When the plaques are too many to count, the supernatant is appropriately diluted with Dulbecco's modified Eagle's medium (DMEM) and subjected to a similar assay. […]\n(§2) The total protein concentration of each supernatant was measured by bicinchoninic acid (BCA) method, and the ratio of the cytokine concentration to the total protein concentration was calculated (J. Am. Coll. Cardiol. 33:1400-1407, 1999). […]"}, "EMC virus [1]": {"test_system": "EMC virus", "assay": "Survival rate, EMC viral myocarditis in mice (Experimental Example 2)", "type": "in vivo, DBA/2 male mice", "settings": "compound 1 10 mg/kg/day orally for 14 days, n=22 (6 survived); control 0%", "description": "The effects on viral myocarditis of compound 1 and an immunosuppressant, cyclosporin A (hereinafter to be referred to as CsA), were compared. The compound 1 was dissolved in sterile distilled water and administered, and CsA was dissolved in olive oil and administered.\nFour-week-old DBA/2 male mice were divided into 3 groups, and EMC virus (10 pfu) was intraperitoneally inoculated. After inoculation, distilled water (solvent, control group, n=21), CsA (40 mg/kg/day, CsA group, n=9), and compound 1 (10 mg/kg/day, compound 1 group, n=22) were orally administered forcibly for 14 consecutive days using a probe. The survival rate of each group after 14 days was compared by Kaplan-Meier method."}, "[2]": {"test_system": "EMC (Encephalomyocarditis) virus", "assay": "Histopathological observation of the heart (Experimental Example 1)", "type": "in vivo, DBA/2 mice", "settings": "n=8, day 5, mean ± SEM; for necrosis of myocardial cell (score 0 to 4+): control 1.9 ± 0.2; for cellular infiltration (score 0 to 4+): control 2.0 ± 0.2", "description": "(§3) Four-week-old DBA/2 mice were divided into 3 groups and EMC (Encephalomyocarditis) virus (10 pfu) was intraperitoneally inoculated. After inoculation, distilled water (solvent, n=9) as a control, compound 1 (3 mg/kg/day, n=8), and compound 1 (10 mg/kg/day, n=8) were orally administered forcibly for 5 consecutive days using a probe. Five days later, the heart was removed, and, after fixing with formalin, subjected to hematoxylin-eosin staining, based on which heart necrosis and cellular infiltration were scored as follows. • 0; no lesion, • 1+; lesion in 25% or less of the heart, • 2+; lesion in more than 25% and not more than 50% of the heart • 3+; lesion in more than 50% and not more than 75% of the heart • 4+; lesion in more than 75% and not more than 100% of the heart Results"}, "TNF-α": {"test_system": "TNF-α", "assay": "Intracardiac cytokine assay (ELISA), TNF-α", "type": "in vivo, mouse", "settings": "heart ventricle at day 5; CsA 40 mg/kg/day, compound 1 10 mg/kg/day orally; mean ± SEM; control 4.11 ± 0.11", "description": "as §1, §2"}, "IL-2": {"test_system": "IL-2", "assay": "Intracardiac cytokine assay (ELISA), IL-2", "type": "in vivo, mouse", "settings": "heart ventricle at day 5; CsA 40 mg/kg/day, compound 1 10 mg/kg/day orally; mean ± SEM; control 12.79 ± 1.24", "description": "as §1, §2"}, "NO": {"test_system": "NO", "assay": "Intracardiac nitric oxide (NO) assay (modified Griess method)", "type": "in vivo, mouse", "settings": "heart ventricle at day 5; CsA 40 mg/kg/day, compound 1 10 mg/kg/day orally; mean ± SEM; control 2.07 ± 0.20", "description": "as §1, with “After culture under 5% CO2-containing humidified atmosphere at 37° C. for 20 hr, the cells were fixed with acetic acid-methanol (1:2) and stained with 1% crystal violet.” left out, “1994).” for “1994). When the plaques are too many to count, the supernatant is appropriately diluted with Dulbecco's modified Eagle's medium (DMEM) and subjected to a similar assay.”\nThe intracardiac NO content was measured using the same supernatant as used for the cytokine assay according to a modified method of Griess method (J. Am. Coll. Cardiol. 33:1400-1407, 1999; Anal. Biochem. 224:502-508, 1995). […] Optical density at 540 nm was measured using a microplate reader. The nitrite concentration of each sample was calculated based on the standard product. […] The intracardiac NO content was determined by dividing each nitrite concentration by the total protein concentration of each supernatant and expressed in μM/mg total protein. […]"}, "IL-12": {"test_system": "IL-12", "assay": "Intracardiac cytokine assay (ELISA), IL-12", "type": "in vivo, mouse", "settings": "heart ventricle at day 5; CsA 40 mg/kg/day, compound 1 10 mg/kg/day orally; mean ± SEM; control 71.76 ± 7.37", "description": "as §1, §2"}, "EMC virus [3]": {"test_system": "EMC virus", "assay": "Intracardiac virus titer (plaque assay on human amnion FL cells)", "type": "in vivo, male DBA/2 mice", "settings": "CsA 40 mg/kg/day, compound 1 10 mg/kg/day orally for 5 days; heart at day 5; mean ± SEM; control 5.18 ± 2.73 × 10^6", "description": "Four-week-old male DBA/2 mice were divided into 3 groups and EMC virus (10 pfu) was intraperitoneally inoculated. After inoculation, distilled water (solvent, n=8) as a control, CsA (40 mg/kg/day, n=5), and compound 1 (10 mg/kg/day, n=7) were orally administered forcibly for 5 consecutive days using a probe. Five days later, the heart was aseptically harvested from the mice, and after weighing the ventricle, homogenized in phosphate-buffered saline (PBS, 1 ml). The homogenate was centrifuged at 4° C., 1,500 g for 15 min and the supernatant (0.1 ml) was inoculated to human amnion FL cell monolayer and cultured at 37° C. for 60 min in 5% CO2. The cells were overlaid with a medium (3 ml) containing 4% fetal calf serum and 1% methylcellulose. After culture under 5% CO2-containing humidified atmosphere at 37° C. for 20 hr, the cells were fixed with acetic acid-methanol (1:2) and stained with 1% crystal violet. The plaques were counted under an inverted microscope (Circulation. 89:846-851, 1994). When the plaques are too many to count, the supernatant is appropriately diluted with Dulbecco's modified Eagle's medium (DMEM) and subjected to a similar assay. The test was repeated and the mean was taken. The virus titer was expressed in pfu/g heart. The statistical analysis was conducted by one way ANOVA and Fisher's protected least significant difference test."}, "[4]": {"test_system": "EMC (Encephalomyocarditis) virus", "assay": "Survival rate, EMC viral myocarditis in mice (Experimental Example 1)", "type": "in vivo, DBA/2 mice", "settings": "EMC virus 10 pfu i.p., control 0%", "description": "Four-week-old DBA/2 mice were divided into 3 groups, and EMC (Encephalomyocarditis) virus (10 pfu) was intraperitoneally inoculated. After inoculation, distilled water (solvent, group A, n=11) as a control, compound 1 (1 mg/kg/day, group B, n=10), and compound 1 (3 mg/kg/day, group C, n=10) were orally administered forcibly for 14 consecutive days using a probe. The survival rate of each group after 14 days was compared by Kaplan-Meier method."}, "EMC virus [5]": {"test_system": "EMC virus", "assay": "Histopathological observation of the heart (Experimental Example 2)", "type": "in vivo, male DBA/2 mice", "settings": "CsA 40 mg/kg/day, compound 1 10 mg/kg/day orally for 5 days, day 5, mean ± SEM", "description": "as §3\nFour-week-old male DBA/2 mice were divided into 3 groups and EMC virus (10 pfu) was intraperitoneally inoculated. […] Five days later, the heart was harvested, and, after fixing with formalin, subjected to hematoxylin-eosin staining, based on which heart necrosis and cellular infiltration were scored according to the criteria shown in Experimental Example 1.\nThe myocardial cell necrosis and cellular infiltration were independently scored by two observers and averaged. […]"}}, "note": "Counter-ions that a name gives are not always drawn.", "data": [{"smiles": "CCCCCCCCc1ccc(CCC(N)(CO)CO)cc1", "note": "[compound 1, 2-Amino-2-(2-(4-octylphenyl)ethyl)propane-1,3-diol hydrochloride]", "values": [{"measurement": "IFN-γ", "setting": "IFN-γ", "value": "108.86 ± 12.98", "unit": "pg/mg total protein"}, {"measurement": "survival rate at day 14", "setting": "EMC virus [1]", "value": 27, "unit": "%"}, {"measurement": "necrosis of myocardial cell (score 0 to 4+)", "setting": "[2]; 3 mg/kg/day orally for 5 days", "value": "1.7 ± 0.4"}, {"measurement": "cellular infiltration (score 0 to 4+)", "setting": "[2]; 3 mg/kg/day orally for 5 days", "value": "1.6 ± 0.2"}, {"measurement": "necrosis of myocardial cell (score 0 to 4+)", "setting": "[2]; 10 mg/kg/day orally for 5 days", "value": "1.0 ± 0.2"}, {"measurement": "cellular infiltration (score 0 to 4+)", "setting": "[2]; 10 mg/kg/day orally for 5 days", "value": "1.1 ± 0.2"}, {"measurement": "TNF-α", "setting": "TNF-α", "value": "3.72 ± 0.25", "unit": "ng/mg total protein"}, {"measurement": "IL-2", "setting": "IL-2", "value": "6.06 ± 0.67", "unit": "ng/mg total protein"}, {"measurement": "NO content", "setting": "NO", "value": "1.91 ± 0.34", "unit": "μM/mg total protein"}, {"measurement": "IL-12", "setting": "IL-12", "value": "46.00 ± 12.82", "unit": "pg/mg total protein"}, {"measurement": "virus titer", "setting": "EMC virus [3]", "value": "1.23 ± 0.53 × 10^7 (NS) pfu/g heart"}, {"measurement": "survival rate at day 14", "setting": "[4]; 1 mg/kg/day orally for 14 days (group B, n=10)", "value": 10, "unit": "%"}, {"measurement": "survival rate at day 14", "setting": "[4]; 3 mg/kg/day orally for 14 days (group C, n=10), p<0.05", "value": 30, "unit": "%"}, {"measurement": "necrosis of myocardial cell (score 0 to 4+)", "setting": "EMC virus [5]; control 1.89 ± 0.23", "value": "1.00 ± 0.19"}, {"measurement": "cellular infiltration (score 0 to 4+)", "setting": "EMC virus [5]; control 2.00 ± 0.19", "value": "1.06 ± 0.19"}]}]}
